Patent EP3360553B1, “MOLECULES AND PHARMACEUTICAL COMPOSITIONS, IN PARTICULAR FOR TREATING A GENETIC BLOOD DISORDER” (Université de La Réunion, priority 2017, dated 2018)

What was measured:
[1] = tested on: laminin 521; assay: Red blood cell adhesion to laminin 521 under flow conditions; format: cell-based; details: RBCs from sickle cell disease patients incubated with molecule at 0.1 mM for 30 min at room temperature, recombinant human laminin 521, 3 blood samples
Description: (§1) In the figures: • Figure 1: Adhesion of RBCs from sickle cell disease patients (N = 3) to laminin 521. Results are presented as a percentage of adhesion, 100% of adhesion being the adhesion level observed for RBCs incubated with buffer supplemented with DMSO alone. • Figure 2: Adhesion of RBCs from sickle cell disease patients to laminin 521 in the presence of increasing concentrations of Molecule 2 and Molecule 3. Results are presented as a percentage of adhesion, 100% of adhesion being the adhesion level observed for RBCs incubated without the molecules.
Red blood cell adhesion to laminin 521 was measured under flow conditions using Vena8 Endothelial+™ biochips (internal channel dimensions: length 20 mm, width 0.8 mm, height 0.12 mm) and ExiGo™ Nanopumps (Cellix Ltd, Dublin, Ireland). Three different solutions were prepared with either Molecule 1, Molecule 2 or Molecule 3 (0.1 mM) by solubilizing Molecule 1, 2 or 3 using DMSO. Recombinant human laminin 521 (BioLamina) at 5 ng/µl was immobilized on the internal surface of the biochips at 4°C overnight. RBCs from sickle cell disease patients were suspended at 5x10^7 cells/ml in Hanks balanced salt solution, without calcium chloride and magnesium sulfate (Sigma-Aldrich) supplemented with 0.4% BSA, and incubated with the solution comprising either Molecule 1, Molecule 2 or Molecule 3 at 0.1 mM or DMSO, for 30 min at room temperature (20°C) and perfused through the biochip channels for 10 min at a shear stress of 0.5 dyn/cm^2 followed by a washout at the same shear stress with the buffer alone for 30 min. Five minutes washouts with the Hanks/0.4% BSA buffer were performed at 1, 2, 3, 4 and 5 dyn/cm^2. After each wash, adherent RBCs were counted in 7 representative areas along the centerline of each channel using the AxioObserver Z1 microscope and ZEN analysis software (Carl Zeiss, Le Pecq, France) and the mean number of adherent RBCs was determined for each condition and each washout step (Figure 1). Images of the same 7 areas were obtained throughout each experiment. […]

[2] = Control of hemolysis (RBC concentration by CASY Cell Counter and Analyzer); format: cell-based; details: red blood cells; 0.1 mM, 30 min incubation at room temperature; compared to vehicle (DMSO); read-out: decrease of the RBC concentration
Description: (§2) At the end of the 30 min of incubation with the molecules, the number of RBC for the control of hemolysis was measure by using CASY® Cell Counter and Analyzer.
(§3) For hemolysis assays, RBCs were suspended at 6x10^6 cells/ml in the Hanks/0.4% BSA buffer and the concentration measured accurately using the CASY® Cell Counter and Analyzer. RBCs were then incubated with the solution comprising either Molecule 1, Molecule 2 or Molecule 3 at 0.1 mM or DMSO, for 30 min at room temperature. After this incubation time cell concentration was measured again using CASY® Cell Counter and Analyzer (Table 1). If hemolysis occurs during this incubation time it will be reflected by a decrease in the RBC concentration.

[3] = tested on: RBCs; assay: as above; format: cell-based; details: 0.1 mM, 30 min incubation at room temperature; for RBCs/ml (x10^6): Hanks/0.4% BSA buffer, RBCs suspended at 6x10^6 cells/ml; for decrease of RBC concentration compared to vehicle (DMSO) alone: result in words
Description: as §2, §3

[4] = tested on: laminin 521; assay: Dose effect in the RBC adhesion assay to laminin 521; format: cell-based, human; details: 50, 100 and 200 µM; RBCs from sickle cell disease patients; same conditions as Example 1
Description: as §1
Red blood cell adhesion to laminin 521 was measured under flow conditions using Vena8 Endothelial+™ biochips (internal channel dimensions: length 20 mm, width 0.8 mm, height 0.12 mm) and ExiGo™ Nanopumps (Cellix Ltd, Dublin, Ireland). Three different solutions were prepared with either Molecule 1, Molecule 2 or Molecule 3 (0.1 mM) by solubilizing Molecule 1, 2 or 3 using DMSO. Recombinant human laminin 521 (BioLamina) at 5 ng/µl was immobilized on the internal surface of the biochips at 4°C overnight. […] After each wash, adherent RBCs were counted in 7 representative areas along the centerline of each channel using the AxioObserver Z1 microscope and ZEN analysis software (Carl Zeiss, Le Pecq, France) and the mean number of adherent RBCs was determined for each condition and each washout step (Figure 1). […]

Row | SMILES | RBC adhesion to laminin [1] | hemolysis at 0.5 h, 100 µM [2] [%] | RBCs/ml (x10^6) [3] | inhibition of RBC adhesion to laminin with increasing concentrations [4] | decrease of RBC concentration compared to vehicle (DMSO) alone [3]
1 | Cc1c(CC(=O)NC(C(=O)O)c2ccccc2)c(=O)oc2c(C)c3oc4c(c3cc12)CCCC4 (centres unmarked) [Molecule 2] | inhibited | < 10 | 5.55 x10^6 RBCs/ml | increasing inhibition | –
2 | O=S(=O)(O)CCCn1c(=NN=Cc2c(O)ccc3ccccc23)sc2ccccc21 [Molecule 3] | inhibited | – | 6.02 x10^6 RBCs/ml | increasing inhibition | no decrease
3 | CCC(=O)N1CCc2ccc(OCc3nc(C(=O)NCc4ccccc4)co3)cc2C1c1ccc(C)cc1 (centres unmarked) [Molecule 1] | not | – | 6.04 x10^6 RBCs/ml | – | no decrease
